From US8143393B2, “Substituted 4-amino-pyrrolotriazine derivatives useful for treating hyper-proliferative disorders and diseases associated with angiogenesis” (Bayer HealthCare LLC, priority 2005, dated 2012)

Target: T1, FGFR-1 (Homo sapiens, UniProt P11362)
T1 construct: GST; made in house
Assay: FGFR-1 TR-FRET biochemical assay
In short: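 FGFR1-GST (5 nM) was incubated with poly GT-biotin (25 nM) and 0.6 uM ATP in HEPES pH 7.5/MgCl2 with 1% DMSO for 1 h at room temperature. Phosphorylation was read by LANCE TR-FRET (Eu-anti-pTyr/SA-APC, 665/615 ratio). Percent inhibition was background-corrected against no-ATP wells, with final compound concentrations of 10 μM–0.128 nM.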

[1] = 0.6 uM ATP, 5 nM FGFR1-GST, bounds given in nM

T1 sequence (P11362 22-822): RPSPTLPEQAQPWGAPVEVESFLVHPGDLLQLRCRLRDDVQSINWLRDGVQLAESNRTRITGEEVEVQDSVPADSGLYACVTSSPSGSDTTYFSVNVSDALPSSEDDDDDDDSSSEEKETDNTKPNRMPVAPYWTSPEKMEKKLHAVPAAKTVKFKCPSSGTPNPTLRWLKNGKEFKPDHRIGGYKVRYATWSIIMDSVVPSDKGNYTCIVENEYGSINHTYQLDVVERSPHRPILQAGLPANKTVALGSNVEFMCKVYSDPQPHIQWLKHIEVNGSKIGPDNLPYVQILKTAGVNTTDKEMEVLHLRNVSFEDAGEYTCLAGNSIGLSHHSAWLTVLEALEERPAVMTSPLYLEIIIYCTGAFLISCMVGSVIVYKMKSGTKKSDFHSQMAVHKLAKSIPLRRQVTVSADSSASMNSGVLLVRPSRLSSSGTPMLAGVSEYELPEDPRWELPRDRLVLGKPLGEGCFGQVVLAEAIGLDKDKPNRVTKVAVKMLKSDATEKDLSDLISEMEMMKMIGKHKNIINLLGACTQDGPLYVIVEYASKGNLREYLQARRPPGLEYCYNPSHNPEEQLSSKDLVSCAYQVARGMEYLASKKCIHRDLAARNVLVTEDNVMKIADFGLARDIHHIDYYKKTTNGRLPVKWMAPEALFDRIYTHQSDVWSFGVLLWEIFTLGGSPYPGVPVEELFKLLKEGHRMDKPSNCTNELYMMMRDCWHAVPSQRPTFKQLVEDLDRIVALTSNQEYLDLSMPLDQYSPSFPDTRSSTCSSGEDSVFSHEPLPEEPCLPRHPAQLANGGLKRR

| SMILES | IC50 [1] [nM] | IC50 (upper bound of the bin 'greater than 100 nM but less than 1 μM' (lower bound in E1)) [nM] |
| --- | --- | --- |
| Nc1ncnn2c(CN3CCCOCC3)cc(-c3ccc(NC(=O)Nc4cc(C(F)(F)F)ccc4F)cc3)c12 [Example 167, N-{4-[4-amino-7-(1,4-oxazepan-4-ylmethyl)pyrrolo[2,1-f][1,2,4]triazin-5-yl]phenyl}-N′-[2-fluoro-5-(trifluoromethyl)phenyl]urea] | < 10 |  |
| Nc1ncnn2c(CN3CCCOCC3)cc(-c3cc(F)c(NC(=O)Nc4cc(C(F)(F)F)ccc4F)cc3F)c12 [Example 168, N-{4-[4-amino-7-(1,4-oxazepan-4-ylmethyl)pyrrolo[2,1-f][1,2,4]triazin-5-yl]-2,5-difluorophenyl}-N′-[2-fluoro-5-(trifluoromethyl)phenyl]urea] | < 10 |  |
| Nc1ncnn2c(C3CCN(C(=O)CO)CC3)cc(-c3ccc(NC(=O)Nc4cc(C(F)(F)F)ccc4F)c(Cl)c3)c12 [Example 173, N-{4-[4-amino-7-(1-glycoloylpiperidin-4-yl)pyrrolo[2,1-f][1,2,4]triazin-5-yl]-2-chlorophenyl}-N′-[2-fluoro-5-(trifluoromethyl)phenyl]urea] | < 10 |  |
| Nc1ncnn2c(CN3CCCOCC3)cc(-c3ccc(NC(=O)Nc4cc(C(F)(F)F)ccn4)cc3)c12 [Example 176, N-{4-[4-amino-7-(1,4-oxazepan-4-ylmethyl)pyrrolo[2,1-f][1,2,4]triazin-5-yl]phenyl}-N′-[4-(trifluoromethyl)pyridin-2-yl]urea] | < 10 |  |
| Nc1ncnn2c(CN3CCCOCC3)cc(-c3ccc(NC(=O)Nc4cc(C(F)(F)F)ccc4F)c(F)c3)c12 [Example 177, N-{4-[4-amino-7-(1,4-oxazepan-4-ylmethyl)pyrrolo[2,1-f][1,2,4]triazin-5-yl]-2-fluorophenyl}-N′-[2-fluoro-5-(trifluoromethyl)phenyl]urea] | < 10 |  |
| Nc1ncnn2c(CN3CCCOCC3)cc(-c3ccc(NC(=O)Nc4cc(C(F)(F)F)ccn4)c(F)c3)c12 [Example 179, N-{4-[4-amino-7-(1,4-oxazepan-4-ylmethyl)pyrrolo[2,1-f][1,2,4]triazin-5-yl]-2-fluorophenyl}-N′-[4-(trifluoromethyl)pyridin-2-yl]urea] | < 10 |  |
| Cc1cc(-c2cc(CN3CCCOCC3)n3ncnc(N)c23)ccc1NC(=O)Nc1cc(C(F)(F)F)ccn1 [Example 180, 1-{4-[4-amino-7-(1,4-oxazepan-4-ylmethyl)pyrrolo[2,1-f][1,2,4]triazin-5-yl]-2-methylphenyl}-3-[4-(trifluoromethyl)pyridin-2-yl]urea] | < 10 |  |
| Cc1cc(-c2cc(CN3CCCOCC3)n3ncnc(N)c23)ccc1NC(=O)Nc1cc(C(F)(F)F)ccc1F [Example 181, N-{4-[4-amino-7-(1,4-oxazepan-4-ylmethyl)pyrrolo[2,1-f][1,2,4]triazin-5-yl]-2-methylphenyl}-N′-[2-fluoro-5-(trifluoromethyl)phenyl]urea] | < 10 |  |
| COC[C@@H]1CCCN1CCCc1cc(-c2ccc(NC(=O)Nc3cc(C(F)(F)F)ccc3F)c(F)c2)c2c(N)ncnn12 [Example 184, N-[4-(4-amino-7-{3-[(2S)-2-(methoxymethyl)pyrrolidin-1-yl]propyl}pyrrolo[2,1-f][1,2,4]triazin-5-yl)-2-fluorophenyl]-N′-[2-fluoro-5-(trifluoromethyl)phenyl]urea] | < 10 |  |
| Nc1ncnn2c(CCCN3CCCC3)cc(-c3ccc(NC(=O)Nc4cc(C(F)(F)F)ccc4F)c(F)c3)c12 [Example 186, N-{4-[4-amino-7-(3-pyrrolidin-1-ylpropyl)pyrrolo[2,1-f][1,2,4]triazin-5-yl]-2-fluorophenyl}-N′-[2-fluoro-5-(trifluoromethyl)phenyl]urea] | < 10 |  |
| CN1CCN(CCCc2cc(-c3ccc(NC(=O)Nc4cc(C(F)(F)F)ccc4F)c(F)c3)c3c(N)ncnn23)CC1 [Example 187, N-(4-{4-amino-7-[3-(4-methylpiperazin-1-yl)propyl]pyrrolo[2,1-f][1,2,4]triazin-5-yl}-2-fluorophenyl)-N′-[2-fluoro-5-(trifluoromethyl)phenyl]urea] | < 10 |  |
| CC(=O)N1CCN(CCCc2cc(-c3ccc(NC(=O)Nc4cc(C(F)(F)F)ccc4F)c(F)c3)c3c(N)ncnn23)CC1 [Example 188, N-(4-{7-[3-(4-acetylpiperazin-1-yl)propyl]-4-aminopyrrolo[2,1-f][1,2,4]triazin-5-yl}-2-fluorophenyl)-N′-[2-fluoro-5-(trifluoromethyl)phenyl]urea] | < 10 |  |
| Nc1ncnn2c(CCCN3CCS(=O)(=O)CC3)cc(-c3ccc(NC(=O)Nc4cc(C(F)(F)F)ccc4F)c(F)c3)c12 [Example 189, N-(4-{4-amino-7-[3-(1,1-dioxidothiomorpholin-4-yl)propyl]pyrrolo[2,1-f][1,2,4]triazin-5-yl}-2-fluorophenyl)-N′-[2-fluoro-5-(trifluoromethyl)phenyl]urea] | < 10 |  |
| Nc1ncnn2c(CCCN3CCOCC3)cc(-c3cc(F)c(NC(=O)Nc4cc(C(F)(F)F)ccc4F)cc3F)c12 [Example 190, N-{4-[4-amino-7-(3-morpholin-4-ylpropyl)pyrrolo[2,1-f][1,2,4]triazin-5-yl]-2,5-difluorophenyl}-N′-[2-fluoro-5-(trifluoromethyl)phenyl]urea] | < 10 |  |
| Nc1ncnn2c(CCCN3CCOCC3)cc(-c3ccc(NC(=O)Nc4cc(C(F)(F)F)ccn4)c(F)c3)c12 [Example 191, N-{4-[4-amino-7-(3-morpholin-4-ylpropyl)pyrrolo[2,1-f][1,2,4]triazin-5-yl]-2-fluorophenyl}-N′-[4-(trifluoromethyl)pyridin-2-yl]urea] | < 10 |  |
| Nc1ncnn2c(CCCN3CCCOCC3)cc(-c3ccc(NC(=O)Nc4cc(C(F)(F)F)ccc4F)c(F)c3)c12 [Example 193, N-(4-{4-amino-7-[3-(1,4-oxazepan-4-yl)propyl]pyrrolo[2,1-f][1,2,4]triazin-5-yl}-2-fluorophenyl)-N′-[2-fluoro-5-(trifluoromethyl)phenyl]urea] | < 10 |  |
| CN(C)CCCc1cc(-c2ccc(NC(=O)Nc3cc(C(F)(F)F)ccc3F)c(F)c2)c2c(N)ncnn12 [Example 194, N-(4-{4-amino-7-[3-(dimethylamino)propyl]pyrrolo[2,1-f][1,2,4]triazin-5-yl}-2-fluorophenyl)-N′-[2-fluoro-5-(trifluoromethyl)phenyl]urea] | < 10 |  |
| Nc1ncnn2c(CCCN3CCNC(=O)C3)cc(-c3ccc(NC(=O)Nc4cc(C(F)(F)F)ccc4F)c(F)c3)c12 [Example 195, N-(4-{4-amino-7-[3-(3-oxopiperazin-1-yl)propyl]pyrrolo[2,1-f][1,2,4]triazin-5-yl}-2-fluorophenyl)-N′-[2-fluoro-5-(trifluoromethyl)phenyl]urea] | < 10 |  |
| Nc1ncnn2c(CCCN3CCSCC3)cc(-c3ccc(NC(=O)Nc4cc(C(F)(F)F)ccc4F)c(F)c3)c12 [Example 196, N-{4-4-[4-amino-7-(3-thiomorpholin-4-ylpropyl)pyrrolo[2,1-f][1,2,4]triazin-5-yl]-2-fluorophenyl}-N′-[2-fluoro-5-(trifluoromethyl)phenyl]urea] | 10 to 100 |  |
| CC(C)(C)OC(=O)N1CCC(c2cc(-c3ccc(NC(=O)Nc4cc(C(F)(F)F)ccc4F)c(F)c3)c3c(N)ncnn23)C1 (stereo not shown) [Example 198, tert-butyl 3-{4-amino-5-[3-fluoro-4-({[2-fluoro-5-(trifluoromethyl)phenyl]carbamoyl}amino)phenyl]pyrrolo[2,1-f][1,2,4]triazin-7-yl}pyrrolidine-1-carboxylate] | > 100 | < 1000 |
| Nc1ncnn2c(C3CCNC3)cc(-c3ccc(NC(=O)Nc4cc(C(F)(F)F)ccc4F)c(F)c3)c12 (stereo not shown) [Example 200, N-[4-(4-amino-7-pyrrolidin-3-ylpyrrolo[2,1-f][1,2,4]triazin-5-yl)-2-fluorophenyl]-N′-[2-fluoro-5-(trifluoromethyl)phenyl]urea] | 10 to 100 |  |
| CS(=O)(=O)N1CCC(c2cc(-c3ccc(NC(=O)Nc4cc(C(F)(F)F)ccc4F)c(F)c3)c3c(N)ncnn23)C1 (stereo not shown) [Example 201, N-(4-{4-amino-7-[1-(methylsulfonyl)pyrrolidin-3-yl]pyrrolo[2,1-f][1,2,4]triazin-5-yl}-2-fluorophenyl)-N′-[2-fluoro-5-(trifluoromethyl)phenyl]urea] | < 10 |  |
| CC(=O)N1CCC(c2cc(-c3ccc(NC(=O)Nc4cc(C(F)(F)F)ccc4F)c(F)c3)c3c(N)ncnn23)C1 (stereo not shown) [Example 202, N-{4-[7-(1-acetylpyrrolidin-3-yl)-4-aminopyrrolo[2,1-f][1,2,4]triazin-5-yl]-2-fluorophenyl}-N′-[2-fluoro-5-(trifluoromethyl)phenyl]urea] | < 10 |  |
| CN(C)C(=O)N1CCC(c2cc(-c3ccc(NC(=O)Nc4cc(C(F)(F)F)ccc4F)c(F)c3)c3c(N)ncnn23)C1 (stereo not shown) [Example 203, 3-{4-amino-5-[3-fluoro-4-({[2-fluoro-5-(trifluoromethyl)phenyl]carbamoyl}amino)phenyl]pyrrolo[2,1-f][1,2,4]triazin-7-yl}-N,N-dimethylpyrrolidine-1-carboxamide] | < 10 |  |
| Nc1ncnn2c(C3CCN(C(=O)CO)C3)cc(-c3ccc(NC(=O)Nc4cc(C(F)(F)F)ccc4F)c(F)c3)c12 (stereo not shown) [Example 204, N-{4-[4-amino-7-(1-glycoloylpyrrolidin-3-yl)pyrrolo[2,1-f][1,2,4]triazin-5-yl]-2-fluorophenyl}-N′-[2-fluoro-5-(trifluoromethyl)phenyl]urea] | < 10 |  |
| CC(=O)N1CCC(c2cc(-c3ccc(NC(=O)Nc4cc(C(F)(F)F)ccn4)c(F)c3)c3c(N)ncnn23)C1 (stereo not shown) [Example 205, N-{4-[7-(1-acetylpyrrolidin-3-yl)-4-aminopyrrolo[2,1-f][1,2,4]triazin-5-yl]-2-fluorophenyl}-N′-[4-(trifluoromethyl)pyridin-2-yl]urea] | < 10 |  |
| Nc1ncnn2c(C3CCNC3)cc(-c3ccc(NC(=O)Nc4cc(C(F)(F)F)ccc4F)cc3)c12 (stereo not shown) [Example 206, 1-[4-(4-amino-7-pyrrolidin-3-ylpyrrolo[2,1-f][1,2,4]triazin-5-yl)phenyl]-3-[2-fluoro-5-(trifluoromethyl)phenyl]urea] | < 10 |  |
